Results on two compounds are retold here after patent US20230391817A1, “5ALPHA-HYDROXY-6BETA-[2-(1-H-IMIDAZOL-4-YL)-ETHYLAMINO]-CHOLESTAN-3BETA-OL ANALOGUES AND PHARMACEUTICAL COMPOSITIONS COMPRISING SAME FOR USE IN THE TREATMENT OF CANCER” (priority 2020, published 2023).

Data set [1] relates to murine 4T1 mammary tumor cells. The data set can be described thus: Cell viability of 4T1 cells, MTT. It is filed as cell-based. The following applies: for IC50: Mus musculus, 4T1, MTT, 48 h. How it is done: Cell viability tests were performed on murine 4T1 mammary tumor cells characterized as triple negative (HER2-, ER-, PR-).
For this experiment, a cell culture medium was prepared. The culture medium consisted of Dulbecco's Modified Eagle Medium (DMEM, sold by Westburg as LO BE12-604F), comprising 4.5 g/L glucose with L-glutamine, to which 10% fetal calf serum (FCS) and 50 U/ml penicillin/streptomycin are added. The 4T1 cells were introduced into this culture medium.
96-well plates were seeded with 2000 4T1 cells per well. After 72 hours (h) of culture under normal condition, i.e. in an incubator at 37° C. at […], the 4T1 cells were treated for 48 h with DX101, DX103, DX111, DX123, DX125, DX127 and DX129 at 100 nM, 1 μM, 2.5 μM and 10 μM. A control condition (CTL) is also performed in parallel using the previously described protocol without treatment with the molecules DX101, DX103, DX111, DX123, DX125, DX127 or DX129.
The cell viability is measured by three different methods. For the first method, MTT labeling is performed at 48 hours. This test is based on the use of the tetrazolium salt MTT (3-(4,5-dimethylthiazol-2-yl)-2,5-diphenyltetrazolium bromide). Tetrazolium is reduced by mitochondrial succinate dehydrogenase in active live cells to formazan, a purple colored precipitate. The amount of precipitate formed is proportional to the amount of live cells but also to the metabolic activity of each cell. Thus, a simple determination of the optical density at 550 nm by spectroscopy makes it possible to determine the relative amount of live and metabolically active cells. After 48 hours, the medium is aspirated, and the cells are incubated with MTT (0.5 mg/ml in culture medium) for about 3 hours. The MTT solution is aspirated and the purple crystals are dissolved in dimethyl sulfoxide (DMSO). The OD (optical density) is measured at 550 nm. The percentage of viability is then determined in each well against the CTL and the IC50 (concentration at which 50% of cells remain alive) is determined for each molecule with the Prism software using a nonlinear regression curve (log(inhibitor) vs. Response).

The nature of data set [2]: Pharmacokinetics and bioavailability, oral and I.V., in rats (Example 28). Format: in vivo. The settings on record: rat. How it is done:
Plasma sampling at 0 (without injection), 15, 30 min, 1 h, 4 h, 8 h, 24 h, 48 h, 72 h

Data set [3] deals with BT-474 human mammary tumor cells. The data set can be described thus: Cell viability of BT-474 cells, LDH. It is filed as cell-based. The settings on record: BT-474, LDH, 48 h; for Mean LogIC50 (±SEM): log of IC50 in μM; for IC50: Homo sapiens. How it is done: For the second method, the percentage of viability is determined by assaying the activity of the enzyme LDH (lactate dehydrogenase) in cell supernatants using the non radioactive cytotoxicity assay kit (Promega). LDH is an enzyme released in the supernatant of dead cells. The higher the LDH activity in the supernatant, the greater the cell death. In this enzyme assay, the LDH released converts a violet tetrazolium salt to a red colored formazan, absorbing at 490 nm. The intensity of the red color is proportional to the number of dead cells. After 48 h of treatment, the supernatants are transferred to a new 96-well plate and incubated for 30 minutes in the presence of substrate mix at room temperature. The reaction is stopped with stop solution reagent and the absorbance is determined at 490 nm. The percentage of cell death is determined here using a 100% maximum LDH activity control (made from untreated cells incubated in the presence of lysis solution for 45 minutes at 37° C. just prior to addition of the substrate mix), and the cell viability in each well is then deduced from this percentage. The IC50 is then determined as explained in the preceding paragraph.
(§1) Cell viability tests were also performed on BT-474 human mammary tumor cells (characterized as triple positive HER2+, ER+, PR+). The BT-474 cells were in a cell culture medium identical to the previous example and seeded in 24-well plates at 70 000 cells per well for cell viability determination using trypan blue, or in 96-well plates at 13 000 cells per well for cell viability determination using the MTT or LDH assay. After 96 hours (h) of culture under normal conditions, i.e. in an incubator at 37° C. with […], BT-474 cells were treated for 48 h with DX101, DX103, DX105, DX111, DX123 and DX127 at 100 nM, 1 μM, 2.5 μM and 10 μM. A control is also performed using the protocol described previously without treatment with DX101, DX103, DX105, DX111, DX123 and DX127.
(§2) After a 10-minute trypsin digestion at 37° C., the cell survival was also quantified by means of a trypan blue test with automatic counting using the Biorad TC20 machine (TC20™ Automated Cell Counter). The trypan blue test is based on the integrity of cell membranes, which is disrupted in the dead cells. Trypan blue stains dead cells blue. The Biorad TC20 cell counter counts the proportion of blue and non-blue cells, and reports the percentage of cells. The percentage of viability is then determined in each well relative to the untreated cells and the IC50 is determined as explained in the preceding example. Also, the percentage viability of the BT-474 cells was determined using the MTT and LDH assay, performed as described in the preceding example.

For data set [4] the test system is unchanged. Kind of data set: Cell viability of BT-474 cells, trypan blue. Format: cell-based. The following applies: BT-474, Trypan Blue, 48 h; for Mean LogIC50 (±SEM): log of IC50 in μM; for IC50: Homo sapiens. Here is the method: as §1, §2
[5] abbreviates: log of IC50 in μM, read-out: Mean LogIC50 (±SEM) (converted).

Like-named read-outs stand apart in the source and are kept apart here.

Turning to `CC(C)CCC[C@@H](C)[C@H]1CC[C@H]2[C@@H]3C[C@@H](NCCc4c[nH]cn4)[C@@]4(O)C[C@@H](O)CC[C@]4(C)[C@H]3CC[C@]12C` [DX101, 5α-hydroxy-6β-[2-(1H-imidazol-4-yl)ethylamino]cholestan-3β-ol, reference compound], the IC50 in data set [1] (setting [5]) is 4.37 µM; in data set [1] (read-out: IC50), 4.4 µM; in data set [3], 10.6 µM; in data set [4] it was 4.03 µM. Moreover, the clearance in data set [2] (plasma, iv, 5 mg/kg, read-out: Clearance) was found to be 11 mL/min/kg; in data set [2] (po, 50 mg/kg), 412 mL/min/kg. Further, the half-life in data set [2] (plasma, iv, 5 mg/kg, read-out: T½ 2nd phase (converted)) was 28 h; in data set [2] (plasma, po, 50 mg/kg, read-out: T½ 2nd phase (converted)) it was 39 h. In data set [2] (plasma, po 50 mg/kg versus iv 5 mg/kg, read-out: F %), the bioavailability was determined as 3%. Also, the “ASC(t0-tlast)” value in data set [2] (iv, 5 mg/kg, plasma) came out at 6205; in data set [2] (po, 50 mg/kg, plasma), 1546. Also, the maximum concentration (Cmax) (in general, the highest concentration seen after dosing) was 3310 ng/mL in data set [2] (iv, 5 mg/kg, plasma, read-out: Cmax) and 77 ng/mL in data set [2] (po, 50 mg/kg, plasma, read-out: Cmax). Besides, the Vd in data set [2] (plasma, iv, 5 mg/kg, iv, 5 mg/kg, read-out: Vd) was found to be 29 L/kg; in data set [2] (plasma, iv, 5 mg/kg, iv, 5 mg/kg, read-out: Vss), 19 L/kg. Besides, the Tmax (usually the time at which the peak concentration occurs) in data set [2] (po, 50 mg/kg, plasma, read-out: Tmax) turned out to be 4 h. Also, the “Mean LogIC50 (±SEM)” value in data set [3] is 1.03 ± 0.06; in data set [4], 0.61 ± 0.20.
With `CC(C)CCC[C@@H](C)[C@H]1CC[C@H]2[C@@H]3C[C@@H](NCCc4c[nH]cn4)[C@@]4(O)C[C@@H](F)CC[C@]4(C)[C@H]3CC[C@]12C` [DX111, 3β-fluoro-5α-hydroxy-6β-[2-(1H-imidazol-4-yl)ethylamino]cholestane], the “cytotoxic activity compared with DX101” value in data set [1] (4T1, Tables 1a, 1b and 1c (MTT, LDH, Green Cytotoxicity Assay)) is “higher”. Moreover, the IC50 in data set [1] (setting [5]) was 1.7 µM. Besides, in data set [1] (read-out: IC50), the IC50 was 1.69 µM. The same compound came in with a bioavailability in data set [2] (in vivo) of 10%. In data set [2] (in vivo, iv, 5 mg/kg), the “ASC(t0-tlast)” value is listed as 3516, the highest level (Cmax) was 2970 ng/mL, the clearance amounted to 25 mL/min/kg and the half-life is 21 h. Also, the Vd in data set [2] (in vivo, iv, 5 mg/kg, Vd) was determined as 43 L/kg. Moreover, in data set [2] (in vivo, iv, 5 mg/kg, Vss), the Vd came out at 12 L/kg. In data set [2] (in vivo, po), the “bioavailability compared with DX101” value is listed as “three-fold higher bioavailability”, the “clearance compared with DX101” value is listed as “halved” and the “maximum plasma concentration compared with DX101” value is reported as “four times higher”. Further, in data set [2] (in vivo, po, 50 mg/kg), the “ASC(t0-tlast)” value turned out to be 3228, the peak level (Cmax) was 309 ng/mL, the Tmax was determined as 4 h and the clearance was found to be 240 mL/min/kg. In addition, in data set [2] (in vivo, po, 50 mg/kg), the half-life was 24 h. For the same compound, in data set [3], the “Mean LogIC50 (±SEM)” value worked out at 0.89 ± 0.04 and the IC50 amounted to 7.82 µM. For the same compound, in data set [4], the “Mean LogIC50 (±SEM)” value was determined as 0.78 ± 0.15 and the IC50 amounted to 5.96 µM.
